Earlier results on one compound are cited in patent publication US20150182553A1, “USE OF POLYMER D-LACTIC ACID (PDLA) TO TREAT MALARIA” (priority 2013, published 2015).

Molecules are shown by their SMILES.

The test system of data set [1] is mitochondrial respiration of L-lactate. To be noted: brain and heart.
For data set [2] the following is noted: metabolite of PDLA.

As to `C[C@@H](O)C(=O)O` [D-lactic acid], in data set [1], the “effect on mitochondrial respiration of L-lactate” value was “block mitochondrial respiration of L-lactate in the brain and heart”. The “average plasma concentration that may be related to reversible symptoms of altered mental status, dysarthria, and ataxia” value in data set [2] is on record as 7.98 mM.
